Patent publication US7309712B2, “1H-pyrazoles useful in therapy” (Pfizer Limited, priority 2005, dated 2007)

What was measured:
[1] = target: T1, Progesterone Receptor (PR) (Homo sapiens, UniProt P06401); experiment: In vitro functional assay for progesterone receptor (PR) antagonism: inhibition of progesterone-induced alkaline phosphatase expression in T47D cells (Screen 1.0); format: cell-based; settings: antagonist format (5 nM P4), alkaline phosphatase inhibition in T47D human mammary carcinoma cells
T1 construct: endogenous in cells; host or cells: T47D human breast mammary carcinoma cells
T1 sequence (P06401 1-933): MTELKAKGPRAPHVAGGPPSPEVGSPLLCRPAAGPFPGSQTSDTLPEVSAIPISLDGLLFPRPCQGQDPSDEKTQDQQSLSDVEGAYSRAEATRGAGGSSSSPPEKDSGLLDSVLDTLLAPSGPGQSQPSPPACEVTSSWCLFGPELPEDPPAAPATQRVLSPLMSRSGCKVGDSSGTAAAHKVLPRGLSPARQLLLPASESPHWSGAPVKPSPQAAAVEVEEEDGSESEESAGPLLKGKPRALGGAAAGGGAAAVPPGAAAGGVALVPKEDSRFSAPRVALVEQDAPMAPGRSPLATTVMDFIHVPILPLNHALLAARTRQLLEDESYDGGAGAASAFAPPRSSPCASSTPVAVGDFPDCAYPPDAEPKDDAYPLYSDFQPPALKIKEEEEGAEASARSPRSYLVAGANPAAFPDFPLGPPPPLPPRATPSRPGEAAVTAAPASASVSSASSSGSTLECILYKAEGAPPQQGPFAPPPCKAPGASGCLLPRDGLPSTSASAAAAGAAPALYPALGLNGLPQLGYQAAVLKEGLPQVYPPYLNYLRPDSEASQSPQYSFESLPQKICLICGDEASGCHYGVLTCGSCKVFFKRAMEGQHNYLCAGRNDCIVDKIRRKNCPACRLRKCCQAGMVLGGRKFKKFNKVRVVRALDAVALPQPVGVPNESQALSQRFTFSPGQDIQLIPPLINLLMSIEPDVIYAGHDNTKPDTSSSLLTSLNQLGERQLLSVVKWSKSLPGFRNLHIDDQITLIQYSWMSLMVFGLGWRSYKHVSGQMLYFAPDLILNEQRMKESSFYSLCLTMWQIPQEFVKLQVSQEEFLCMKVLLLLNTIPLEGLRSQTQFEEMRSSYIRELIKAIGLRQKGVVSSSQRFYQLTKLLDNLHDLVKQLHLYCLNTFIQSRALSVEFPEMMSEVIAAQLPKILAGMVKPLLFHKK
Excerpt: 1.0 In Vitro Functional Assay for Progesterone Receptor (PR) Antagonism
The assay for PR antagonism takes advantage of the extensively reported modulation of alkaline phosphatase (AP) expression in human breast T47D mammary carcinoma cells {Beck, et al., (1993). The progesterone antagonist RU486 acquires agonist activity upon stimulation of cAMP signalling pathways. Proc. Natl. Acad. Sci., USA, 90, 4441-4445; Fensome, et al. (2002). New progesterone receptor antagonists: 3,3-disubstituted-5-aryloxindoles. Bioorg. Med. Chem. Lett., 12, 3487-3490; Zhang et al., (2002a). 6-Aryl-1,4-dihydro-benzo d 1,3 oxazin-2-ones: a novel class of potent, selective, and orally active nonsteroidal progesterone receptor antagonists. J. Med. Chem., 45, 4379-4382; Zhang et al., (2003). Novel 6-aryl-1,4-dihydrobenzo[d]oxazine-2-thiones as potent, selective, and orally active nonsteroidal progesterone receptor agonists. Bioorganic & Med. Chem. Lett., 13, 1313-1316; Zhang et al., (2002b). Potent nonsteroidal progesterone receptor agonists: synthesis and SAR study of 6-aryl benzoxazines. Bioorganic & Med. Chem. Lett., 12, 787-790; Zhang, et al., (2000). In vitro characterization of trimegestone: a new potent and selective progestin. Steroids 65, 637-643}. […] In the absence of progesterone any agonist activity is also observed as an induction of AP activity. By running the assay in two formats (±progesterone (P4)), compounds behaving as PR antagonists, agonists or partials can be identified.
The materials required to grow T47D cells and perform the progesterone-induced AP assay are outlined in Table 1.
Assay media (agonist format): DMEM without phenol red+5% CS-FCS+2 mM Glutamax. Assay media (antagonist format): DMEM without phenol red+5% CS-FCS+2 mM Glutamax+10 nM P4.
Briefly, T47D cells are grown by propagating in DMEM+10% FBS+2 mM Glutamax at 37° C./5% CO2. At 80-90% confluence, the media is exchanged for phenol red free DMEM+5% CS-FCS (Assay media) and cultured for a further 24 hrs at 37° C./5% CO2. T47D cells are then plated at 2.5×10^4 cells/well in 100 μL assay media in sufficient 96 well plates for the assay, in triplicates of each condition. For example, for a 5-point IC50 curve on one compound, this is equivalent to […]. These plates are then cultured for 24 hrs at 37° C./5% CO2, leaving the outside wells blank by the addition of 200 μL PBS.
A 10 mM stock solution of compounds is prepared in DMSO (stored −20° C. in 10 μL aliquots). A 10 mM DMSO stock of RU486 is used as a standard pure PR antagonist. The compounds under investigation are added to assay medium, or a mixture of 0.05% pluronic acid in PBS, ±10 nM P4 to give a final concentration of 20 μM (i.e. 10 μL of the 10 mM stock to […] assay medium ±10 nM P4). The samples are mixed thoroughly and serial dilutions of compounds from 10 µM to 0.1 nM in a 96 well plate, are prepared as follows:
The outside wells are left blank. Assay medium (225 μL) is added to one half of the plate (−P4), rows 3-8, and to the other half of the plate, assay medium +10 nM P4. To row 2, 250 μL of the top concentration of compound (20 μM±10 nM P4) is added. 25 μL of the […] stock from row 2 is removed and added to the 225 μL of assay medium±10 nM P4 in row 3 and thoroughly mixed. This process is repeated down the plate to row 7 to achieve serial dilutions. The vehicle control is adjusted to contain 0.1% DMSO (i.e. 20 μL to 10 mL assay medium±10 nM P4 to give a concentration of 0.2% DMSO, add 250 μL to row 8).
100 μL of reagent from the dilution plates are transferred into the corresponding wells containing T47D cells assay medium, to give a final concentration of 10 μM to 0.1 nM compound (5 nM P4 antagonist format). The cells were incubated for 20 hrs at 37° C./5% CO2., then media is removed, cells washed with PBS (200 μL) and lysed by placing the cells at −80° C. for 15 min and thawing at room temp. The freeze-thaw lysis is repeated, then PBS (50 μL) is added to each well. […]

| Compound | melting point [°C] | IC50 [1] [nM] |
| --- | --- | --- |
| CS(=O)(=O)Cn1nc(C2CC2)c(Oc2ccc(C#N)cc2)c1C1CC1 [Example 1, 4-(3,5-Dicyclopropyl-1-methanesulfonylmethyl-1H-pyrazol-4-yloxy)-benzonitrile] | 141.5 to 142.5 | – |
| Cc1cc(Oc2c(C3CC3)nn(CS(C)(=O)=O)c2C2CC2)ccc1C#N [Example 2, 4-(3,5-dicyclopropyl-1-methanesulfonylmethyl-1H-pyrazol-4-yloxy)-2-methyl-benzonitrile] | 140.7 to 141.3 | – |
| Cc1cc(Oc2c(C3CC3)nn(CS(C)(=O)=O)c2C2CC2)cc(C)c1C#N [Example 3, 4-(3,5-dicyclopropyl-1-methanesulfonylmethyl-1H-pyrazol-4-yloxy)-2,6-dimethyl-benzonitrile] | – | 8 |
| CS(=O)(=O)Cn1nc(C2CC2)c(Oc2ccc(C#N)c(F)c2)c1C1CC1 [Example 5, 4-(3,5-dicyclopropyl-1-methanesulfonylmethyl-1H-pyrazol-4-yloxy)-2-fluoro-benzonitrile] | – | 44 |

Continued, values first:

| melting point [°C] | IC50 [1] [nM] | Compound |
| --- | --- | --- |
| – | 22 | Cc1cc(Oc2c(C3CC3)nn(CS(C)(=O)=O)c2C)ccc1C#N [Example 17, 4-(3-cyclopropyl-1-methanesulfonylmethyl-5-methyl-1H-pyrazol-4-yloxy)-2-methyl-benzonitrile] |
| – | 7 | Cc1cc(Oc2c(C3CC3)nn(CS(C)(=O)=O)c2C)cc(C)c1C#N [Example 19, 4-(3-cyclopropyl-1-methanesulfonylmethyl-5-methyl-1H-pyrazol-4-yloxy)-2,6-dimethyl-benzonitrile] |
| – | 15 | Cc1cc(Oc2c(C)nn(CS(C)(=O)=O)c2C2CC2)cc(C)c1C#N [Example 20, 4-(5-cyclopropyl-1-methanesulfonylmethyl-3-methyl-1H-pyrazol-4-yloxy)-2,6-dimethyl-benzonitrile] |
| – | 6 | CCc1nn(CS(C)(=O)=O)c(CC)c1Oc1cc(C)c(C#N)c(C)c1 [Example 23, 4-(3,5-diethyl-1-methanesulfonylmethyl-1H-pyrazol-4-yloxy)-2,6-dimethyl-benzonitrile] |
